Experimental data as given in patent US6608004B2, “Substituted 2-aryl-1,2,4-triazine-3,5-di(thi)ones” (priority 1999, dated 2003).

Legend:
[1] = logP determination by HPLC, reversed-phase column (C 18), EEC Directive 79/831 Annex V.A8; details: for chromatographic logP: pH 2
Source text: (a) Mobile phases for the determination in the acidic range: 0.1% aqueous phosphoric acid, acetonitrile; linear gradient from 10% acetonitrile to 90% acetonitrile—the corresponding measurement results are labelled in Table 1 with ^a).
(b) Mobile phases for the determination in the neutral range: 0.01 molar aqueous phosphate buffer solution, acetonitrile; linear gradient from 10% acetonitrile to 90% acetonitrile—the corresponding measurement results are labelled in Table 1 with ^b).

[2] = tested on: weeds; assay: Pre-Emergence Test (Example A), activity against weeds; format: in vivo; details: soil sprayed about 24 hours after sowing, rated after three weeks
Source text: (§1) Solvent: 5 parts by weight of acetone
(§2) Emulsifier: 1 part by weight of alkylaryl polyglycol ether
(§3) Seeds of the test plants are sown in normal soil.
0%=no effect (like untreated control)

[3] = tested on: crop plants, such as, for example, barley, wheat, rapeseed, soya and sugar beet; assay: Pre-Emergence Test (Example A), tolerance by crop plants; format: in vivo
Source text: as §1, §2, §3

[4] = tested on: weeds; assay: Post-Emergence Test (Example B), activity against weeds; format: in vivo; details: test plants of a height of 5-15 cm sprayed, rated after three weeks
Source text: as §1, §2
(§4) After three weeks, the degree of damage to the plants is rated in % damage in comparison to the development of the untreated control.

[5] = tested on: crop plants, such as, for example, barley and wheat; assay: Post-Emergence Test (Example B), tolerance by crop plants
Source text: as §1, §2, §4

[6] = reversed-phase HPLC column (C 18)

Structure (SMILES)	melting point [°C]	chromatographic logP [1, 6]	logP a) [1]	chromatographic logP [1]	activity against weeds (degree of damage) [2]	tolerance by crop plants ([3]; pre-emergence, barley, wheat, rapeseed, soya and sugar beet, rated after three weeks)	activity against weeds (degree of damage) [4]	tolerance by crop plants ([5]; post-emergence, barley and wheat, rated after three weeks)	tolerance by crop plants ([3]; in vivo)	tolerance by crop plants ([5]; in vivo)
N#Cc1cc(F)c(-n2ncc(=O)[nH]c2=O)cc1F	> 250									
CCS(=O)(=O)N(C(=O)Oc1ccccc1)c1cc(-n2ncc(=O)n(C)c2=O)c(F)cc1C#N [Example 1, 2-[5-(N-phenoxy-carbonyl-N-ethylsulphonylamino)-4-cyano-2-fluoro-phenyl]-4-methyl-1,2,4-triazine-3,5(2H,4H)-dione]	181			2.76						
C=CC(=O)N(c1cc(-n2ncc(=O)n(C)c2=O)c(F)cc1C#N)S(=O)(=O)CC [Example 2, 2-[5-(N-acryloyl-N-ethylsulphonylamino)-4-cyano-2-fluoro-phenyl]-4-methyl-1,2,4-triazine-3,5(2H,4H)-dione]	118	1.97			very strong activity	essentially being tolerated well	very strong activity	essentially being tolerated well		
CCS(=O)(=O)N(C(=O)COc1ccccc1)c1cc(-n2ncc(=O)n(C)c2=O)c(F)cc1C#N [Example 43]			m.p.: 222 °C logP = 2.96^a)		very strong activity		very strong activity		essentially being tolerated well	essentially being tolerated well
CCS(=O)(=O)N(C(=O)CCc1ccc(Cl)c(Cl)c1)c1cc(-n2ncc(=O)n(C)c2=O)c(F)cc1C#N [Example 44]			m.p.: 142 °C logP = 2.52^a)		very strong activity		very strong activity		essentially being tolerated well	essentially being tolerated well
CCS(=O)(=O)N(C(=O)CCC1CCCC1)c1cc(-n2ncc(=O)n(C)c2=O)c(F)cc1C#N [Example 46]			m.p.: 143 °C logP = 3.34^a)		very strong activity		very strong activity		essentially being tolerated well	essentially being tolerated well
CCS(=O)(=O)N(C(=O)c1ccc(C(C)(C)C)cc1)c1cc(-n2ncc(=O)n(C)c2=O)c(F)cc1C#N [Example 49]			m.p.: 119 °C logP = 3.57^a)		very strong activity		very strong activity		essentially being tolerated well	essentially being tolerated well

Continued, in another order:

melting point [°C]	chromatographic logP [1, 6]	logP a) [1]	Structure (SMILES)	chromatographic logP [1]	activity against weeds (degree of damage) [2]	tolerance by crop plants ([3]; pre-emergence, barley, wheat, rapeseed, soya and sugar beet, rated after three weeks)	activity against weeds (degree of damage) [4]	tolerance by crop plants ([5]; post-emergence, barley and wheat, rated after three weeks)	tolerance by crop plants ([3]; in vivo)	tolerance by crop plants ([5]; in vivo)
		m.p.: 221 °C logP = 2.58^a)	CCS(=O)(=O)N(C(=O)Cc1ccc(OC)cc1)c1cc(-n2ncc(=O)n(C)c2=O)c(F)cc1C#N [Example 45]		very strong activity		very strong activity		essentially being tolerated well	essentially being tolerated well
		m.p.: 93 °C logP = 2.66^a)	CCS(=O)(=O)N(C(=O)C1CCCC1)c1cc(-n2ncc(=O)n(C)c2=O)c(F)cc1C#N [Example 47]		very strong activity		very strong activity		essentially being tolerated well	essentially being tolerated well
		m.p.: 74 °C logP = 3.22^a)	CCOc1ccc(CCC(=O)N(c2cc(-n3ncc(=O)n(C)c3=O)c(F)cc2C#N)S(=O)(=O)CC)cc1 [Example 51]		very strong activity		very strong activity		essentially being tolerated well	essentially being tolerated well
233	1.66		CCS(=O)(=O)Nc1cc(-n2ncc(=O)n(C)c2=O)c(F)cc1C#N [Example (II-1), 2-(2-fluoro-4-cyano-5-ethylsulphonylamino-phenyl)-4-methyl-1,2,4-triazine-3,5(2H,4H)-dione]							
